Test system: zebrafish embryos
Assay: Whole cell current clamp recordings of endplate potentials in zebrafish ventral fast muscle cells
Format: in vivo
Procedure: Experiments were conducted with zebrafish embryos (wildtype (wt) contras, smn-, ncald-, and smn/ncald-morphants) 72 hours post fertilization. The animals were anesthetized with 0.02% tricaine (in saline; E10521, Sigma-Aldrich, Taufkirchen, Germany) for 1-2 min and then rinsed with saline. The saline contained (in mM): 134 NaCl, 2.9 KCl, 2.1 CaCl2, 1.2 MgCl2, 10 HEPES, 10 Glucose adjusted to pH 7.8 with NaOH. The fish were decapitated and pinned under saline in a Sylgard-coated (SYLG184, Dow Coming, Midland, Mich.) recording chamber (˜3 ml volume). The skin was peeled off using a sharp tungsten pin and fine forceps and the preparation was incubated in 3 M formamide (in saline; 6749.1, Carl Roth GmbH, Karlsruhe) for 2 min to prevent muscle contractions. After rinsing the preparation, the superficial layer of ventral slow muscle cells was removed by gently scratching with a fine tungsten pin to expose deeper lying fast skeletal muscle cells. Remaining superficial slow muscles in the segments of interest were removed with a low resistance pipette (˜2 MΩ). […] Muscle cells were visualized with a fixed-stage upright microscope (Zeiss Axio Examiner, Carl Zeiss Microscopy GmbH, Jena, Germany), using a 40× water immersion objective (W Plan-Apochromat, 40×; 1.0 numerical aperture; 2.5 mm working distance; Zeiss) with infrared-differential interference contrast (Dodt and Zieglgansberger 1990) and fluorescence optics. […]
Whole-cell patch clamp recordings in current-clamp mode were performed with an EPC10 patch-clamp amplifier (HEKA-Elektronik, Lambrecht, Germany) that was controlled by the program Patchmaster (version 2.53, HEKA-Elektronik) running under Windows. […] The calculated liquid junction potential between intracellular and extracellular solution of 5.8 mV (calculated with Patcher's-Power-Tools plug-in from http://www.mpibpc.gwdg.de/abteilungen/140/software/index.html for Igor Pro 6 [Wavemetrics, Portland, Oreg., USA]) was also compensated. Whole-cell capacitance was determined by using the capacitance compensation (C-slow) of the EPC10. […]

## smn MO: previously published morpholino knocking down zebrafish smn, CGACATCTTCTGCACCATTGGC (all phosphorodiamidate morpholino (PMO))
72 hpf zebrafish, ventral fast muscle cells, NMDA (100 μM) stimulation
  Frequency of large NMDA-induced EPP / action potentials: 0.37±0.17 Hz
72 hpf zebrafish, ventral fast muscle cells, without stimulation
  Spontaneous mEPP frequency at rest: 0.32±0.16 Hz
Zebrafish morphants compared to wild type
  Resting and NMDA induced EPP activity: significant reduction of the mEPP and the EPP rate

Reference: US9988626B2, “Neurocalcin delta inhibitors and therapeutic and non-therapeutic uses thereof” (Universität Zu Köln, priority 2013, dated 2018)
